Assay results as given in publication PMC9519552, “Activation of the human insulin receptor by non-insulin-related peptides” (Nature Communications, 2022).
Read-outs that look alike come from different tables or passages of the source. Positions of bridges follow the written chain, without caps; N, C: chain ends. Residues, ends and D or L forms follow the SMILES beside them.

Legend:
human IR-A (holoIR-A) = target: T1, human IR-A (holoIR-A) (Homo sapiens, UniProt P06213); experiment: holoIR-A competitive radioligand binding assay (scintillation proximity assay)
T1 construct: expressed in transfected cells; host or cells: HEK293 (ATCC #CRL-1573), stably transfected; membrane preparation
T1 sequence (P06213 28-1370 isoform P06213-2 limits assumed): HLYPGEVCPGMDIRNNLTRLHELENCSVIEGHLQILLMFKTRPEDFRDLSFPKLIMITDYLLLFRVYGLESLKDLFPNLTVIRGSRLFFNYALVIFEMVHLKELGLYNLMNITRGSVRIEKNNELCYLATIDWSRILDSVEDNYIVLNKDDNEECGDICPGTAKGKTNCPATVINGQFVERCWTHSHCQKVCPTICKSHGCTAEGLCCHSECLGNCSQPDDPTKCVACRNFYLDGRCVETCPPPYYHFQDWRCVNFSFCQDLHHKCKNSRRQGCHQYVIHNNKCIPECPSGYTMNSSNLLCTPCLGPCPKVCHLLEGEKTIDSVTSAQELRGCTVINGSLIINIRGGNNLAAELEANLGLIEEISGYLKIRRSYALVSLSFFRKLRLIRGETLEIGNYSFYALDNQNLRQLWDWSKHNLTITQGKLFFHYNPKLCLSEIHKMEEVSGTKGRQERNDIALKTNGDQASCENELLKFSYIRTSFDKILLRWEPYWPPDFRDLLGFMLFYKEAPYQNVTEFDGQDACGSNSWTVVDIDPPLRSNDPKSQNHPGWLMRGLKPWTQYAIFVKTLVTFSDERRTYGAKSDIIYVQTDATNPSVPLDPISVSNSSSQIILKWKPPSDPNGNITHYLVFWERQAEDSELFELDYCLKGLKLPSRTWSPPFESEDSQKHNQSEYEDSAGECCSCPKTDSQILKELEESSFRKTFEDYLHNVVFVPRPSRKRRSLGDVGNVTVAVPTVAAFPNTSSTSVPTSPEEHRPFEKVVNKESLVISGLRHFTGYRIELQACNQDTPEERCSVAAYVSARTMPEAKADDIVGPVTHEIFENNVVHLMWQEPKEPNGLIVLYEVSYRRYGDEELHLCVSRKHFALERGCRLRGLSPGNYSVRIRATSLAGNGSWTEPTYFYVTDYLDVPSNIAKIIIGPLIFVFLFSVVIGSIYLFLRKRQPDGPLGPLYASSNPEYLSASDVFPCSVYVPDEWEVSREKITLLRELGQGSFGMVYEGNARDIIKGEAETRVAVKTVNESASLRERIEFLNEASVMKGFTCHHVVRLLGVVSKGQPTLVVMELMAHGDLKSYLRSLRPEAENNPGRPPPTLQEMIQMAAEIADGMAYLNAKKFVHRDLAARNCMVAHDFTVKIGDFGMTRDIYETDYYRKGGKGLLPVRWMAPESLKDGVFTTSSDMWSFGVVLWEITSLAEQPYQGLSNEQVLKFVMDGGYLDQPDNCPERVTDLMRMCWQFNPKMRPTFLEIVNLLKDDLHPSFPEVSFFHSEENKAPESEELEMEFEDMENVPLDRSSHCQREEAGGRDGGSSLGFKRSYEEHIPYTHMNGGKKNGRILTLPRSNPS
T1 sequence (P06213 763-1382 partner limits assumed): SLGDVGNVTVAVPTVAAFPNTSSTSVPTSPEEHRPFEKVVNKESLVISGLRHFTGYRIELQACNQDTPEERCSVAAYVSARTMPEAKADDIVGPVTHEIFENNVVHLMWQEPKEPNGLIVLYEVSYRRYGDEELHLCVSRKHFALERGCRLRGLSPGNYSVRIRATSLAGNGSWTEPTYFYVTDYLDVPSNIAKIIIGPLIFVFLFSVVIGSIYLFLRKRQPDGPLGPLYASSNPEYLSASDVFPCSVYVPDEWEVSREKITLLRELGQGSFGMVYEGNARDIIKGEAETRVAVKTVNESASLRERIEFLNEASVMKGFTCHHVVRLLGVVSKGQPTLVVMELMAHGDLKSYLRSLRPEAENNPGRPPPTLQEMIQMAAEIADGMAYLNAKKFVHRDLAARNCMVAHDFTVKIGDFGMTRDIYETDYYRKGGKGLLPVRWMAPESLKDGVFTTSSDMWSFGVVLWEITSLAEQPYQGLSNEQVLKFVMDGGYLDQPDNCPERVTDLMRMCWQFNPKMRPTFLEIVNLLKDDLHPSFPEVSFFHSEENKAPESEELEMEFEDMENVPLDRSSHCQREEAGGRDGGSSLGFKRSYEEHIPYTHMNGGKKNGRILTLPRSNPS
Description: Cellular membranes were prepared from human embryonic kidney (HEK293; ATCC #CRL-1573) cells stably transfected with cDNA corresponding to human IR-A (holoIR-A) plus a C-terminal C9 tag ([…]) inserted within a pcDNA3.1 plasmid (Invitrogen), with positive clones selected with 800 μg mL^−1 neomycin and confirmed by Western Blot. Frozen cell pellets were thawed in ice-cold homogenization/resuspension buffer (50 mM Tris-HCl, pH 7.5) containing one cOmplete® protease inhibitor tablet with EDTA (Roche Diagnostics) per 50 mL buffer. Cells were homogenized with an overhead motor-driven Teflon-glass homogenizer using 15–20 strokes, followed by centrifugation at 1100 × g for 10 min at 4 °C. The supernatant was saved on ice, pellets were homogenized as before, and centrifuged at 1100 × g for 10 min at 4 °C. Both supernatants were combined and subsequently centrifuged at 35,000 × g for 60 min at 4 °C. The pellet was resuspended in buffer (4 to 5 mL g^−1 of starting cell paste) containing protease inhibitors and quick frozen in liquid nitrogen prior to storage at −80 °C. Protein concentration was determined using a BCA kit (Thermo Scientific) with bovine serum albumin (BSA) as standard.
The assays were performed with a scintillation proximity assay (SPA) method using polyvinyltoluene (PVT) wheat germ agglutinin-coupled SPA beads (Perkin Elmer). Assay buffer containing 50 mM Tris-HCl (pH 7.5), 150 mM NaCl, 0.1% w/v fatty-acid free BSA was used for all compound testing and reagent preparation. Ten-point concentration response curves with three-fold serial dilutions of test samples or controls were prepared in the assay buffer. […] Plates were sealed and shaken for 1 min on a plate shaker. Following a 10-h incubation and bead settling period at room temperature, radioactivity was determined using a MicroBeta Trilux scintillation counter (Perkin Elmer) and expressed as counts per minute (CPM). […] Samples were tested in three independent assay runs on three different days.
All test sample concentration responses were normalized to the control response and calculated as a percent of the maximal response after correcting for nonspecific binding as shown below: %Specific Inhibition=100%−[(CPM−MIN)/(MAX−MIN)×100%]
Percent specific binding (y-axis) was plotted vs log concentration of compound (x-axis) using Prism Version 9.3.1 (GraphPad Software). Individual measurements are provided as Source Data.

[1] = target: T2, human holoIR-A over-expressed in HEK293 cells (Homo sapiens, UniProt P06213); experiment: Inhibition of hIR phosphorylation by peptides, co-incubated with BHI at its EC50 (ELISA); type: cell-based; conditions: for hIRA Phosph IC50 Run 1 / hIRA Phosph IC50 Run 2 / hIRA Phosph IC50 Run 3: inhibition of insulin-stimulated phosphorylation; for hIRA Phosph IC50 Run 1: BHI at its EC50, run 1; for hIRA Phosph IC50 Run 2: BHI at its EC50, run 2; for hIRA Phosph IC50 Run 3: BHI at its EC50, run 3; for IC50: read-out: hIRA Phosph IC50 Mean
T2 construct: expressed in transfected cells; host or cells: HEK293, stably transfected
T2 sequence (P06213 28-1370 isoform P06213-2 limits assumed): as the sequence (P06213 28-1370 isoform P06213-2 limits assumed) above
T2 sequence (P06213 763-1382 partner limits assumed): as the sequence (P06213 763-1382 partner limits assumed) above
Description: Phosphorylation was quantified using an ELISA technique. Ninety-six well, flat-bottom microplates (Greiner Bio-One) were pre-coated with 2 µg mL^−1 anti-C9 monoclonal antibody (Rho 1D4; University of British Columbia)[27] in 20 mM sodium carbonate, pH 9.6, at 4 °C for overnight prior to the assay. On the assay day, plates were washed 3× with 0.1% Tween in 50 mM Tris Buffer Saline, pH 7.5 (TBST), and then blocked for greater than 1 h at room temperature (RT) with 1% BSA (Sigma) in TBST.
Stably transfected HEK293 cells over-expressing human holoIR-A containing a C-terminal C9 epitope tag ([…]), were plated at 6 × 10^4 cells per well serum-starved using 0.1% BSA in DMEM (Gibco) for overnight at standard tissue culture condition. […] After a 15-min incubation in lysis buffer at 4 °C, the lysate was transferred to anti-C9 antibody coated capture plate (Rho 1D4; University of British Columbia)[27]. […] After a 1 h incubation at room temperature, the secondary antibody was removed by washing 3× with TBST. Signal detection occurred with the addition of TMB, an HRP substrate (Pierce). After 5–10 min, the reaction was stopped by adding an equal volume of 2 M H2SO4, and the absorbance readings at 450 nm (A450) were recorded using a Envision plate reader (PerkinElmer). Samples were tested in three independent assay runs on three different days.
Percent specific response (y-axis) was plotted versus the log concentration of compound (x-axis) using Prism Version 9.3.1 (GraphPad Software). Individual measurements are provided as Source Data.

[2] = IM172N22(-) mutant peptide set, run 1, read-out: hIRA Binding Ki Run 1
[3] = IM172N22(-) mutant peptide set, run 2, read-out: hIRA Binding Ki Run 2
[4] = IM172N22(-) mutant peptide set, run 3, read-out: hIRA Binding Ki Run 3
[5] = IM172N22(-) mutant peptide set, mean of 3 runs, read-out: hIRA Binding Ki Mean

SMILES | Ki (human IR-A (holoIR-A); [2]) [nM] | Ki (human IR-A (holoIR-A); [3]) [nM] | Ki (human IR-A (holoIR-A); [4]) [nM] | Ki (human IR-A (holoIR-A); read-out: hIRA Binding Ki Mean) [nM] | hIRA Phosph IC50 Run 1 [1] [nM] | hIRA Phosph IC50 Run 2 [1] [nM] | hIRA Phosph IC50 Run 3 [1] [nM] | IC50 [1] [nM] | Ki (human IR-A (holoIR-A); [5]) [nM] | reduction in ki for hIR-A on substitution (human IR-A (holoIR-A); relative to control peptide IM172N22 devoid of N-terminal phenylacetylation)
CC[C@H](C)[C@H](NC(=O)[C@H](CCC(N)=O)NC(=O)[C@H](C)NC(=O)[C@H](Cc1c[nH]c2ccccc12)NC(=O)[C@H](CCC(=O)O)NC(=O)[C@H](CCC(=O)O)NC(=O)[C@H](CCC(=O)O)NC(=O)[C@H](CC(C)C)NC(=O)[C@H](CO)NC(C)=O)C(=O)N[C@@H](CCC(=O)O)C(=O)N[C@H]1CSSC[C@@H](C(=O)N2CCC[C@H]2C(=O)N2CCC[C@H]2C(=O)N[C@@H](CO)C(=O)N[C@@H](CCC(=O)O)C(=O)N[C@@H](CO)C(N)=O)NC(=O)[C@H](CCCNC(=N)N)NC(=O)CNC(=O)[C@H](Cc2ccc(O)cc2)NC(=O)[C@H](C(C)C)NC(=O)[C@H](CCC(=O)O)NC1=O [IM172N22-] (Ac-SLEEEWAQIECEVYGRCPPSES-NH2; disulfide 11-17) | 7.07 | 8.06 | 9.36 | 8.16 | 85 | 76 | 80 | 80.3 |  | 
CC[C@H](C)[C@H](NC(=O)[C@H](CCC(N)=O)NC(=O)[C@H](C)NC(=O)[C@H](Cc1c[nH]c2ccccc12)NC(=O)[C@H](CCC(=O)O)NC(=O)[C@H](CCC(=O)O)NC(=O)[C@H](C)NC(=O)[C@H](CC(C)C)NC(=O)[C@H](CO)NC(C)=O)C(=O)N[C@@H](CCC(=O)O)C(=O)N[C@H]1CSSC[C@@H](C(=O)N2CCC[C@H]2C(=O)N2CCC[C@H]2C(=O)N[C@@H](CO)C(=O)N[C@@H](CCC(=O)O)C(=O)N[C@@H](CO)C(N)=O)NC(=O)[C@H](CCCNC(=N)N)NC(=O)CNC(=O)[C@H](Cc2ccc(O)cc2)NC(=O)[C@H](C(C)C)NC(=O)[C@H](CCC(=O)O)NC1=O [Peptide E3A] (Ac-SLAEEWAQIECEVYGRCPPSES-NH2; disulfide 11-17) | 335 | 353 | 337 |  | 1212 | 1189 | 1302 | 1230 | 342 | 
CC[C@H](C)[C@H](NC(=O)[C@H](CCC(N)=O)NC(=O)[C@H](C)NC(=O)[C@H](Cc1c[nH]c2ccccc12)NC(=O)[C@H](CCC(=O)O)NC(=O)[C@H](CCC(=O)O)NC(=O)[C@H](CCCNC(=N)N)NC(=O)[C@H](CC(C)C)NC(=O)[C@H](CO)NC(C)=O)C(=O)N[C@@H](CCC(=O)O)C(=O)N[C@H]1CSSC[C@@H](C(=O)N2CCC[C@H]2C(=O)N2CCC[C@H]2C(=O)N[C@@H](CO)C(=O)N[C@@H](CCC(=O)O)C(=O)N[C@@H](CO)C(N)=O)NC(=O)[C@H](CCCNC(=N)N)NC(=O)CNC(=O)[C@H](Cc2ccc(O)cc2)NC(=O)[C@H](C(C)C)NC(=O)[C@H](CCC(=O)O)NC1=O [Peptide E3R] (Ac-SLREEWAQIECEVYGRCPPSES-NH2; disulfide 11-17) | > 1210 | > 4160 | > 4240 |  | >10000 | >10000 | >10000 | > 10000 | > 4240 | 
CC[C@H](C)[C@H](NC(=O)[C@H](CCC(N)=O)NC(=O)[C@H](C)NC(=O)[C@H](Cc1c[nH]c2ccccc12)NC(=O)[C@H](CCC(=O)O)NC(=O)[C@H](C)NC(=O)[C@H](CCC(=O)O)NC(=O)[C@H](CC(C)C)NC(=O)[C@H](CO)NC(C)=O)C(=O)N[C@@H](CCC(=O)O)C(=O)N[C@H]1CSSC[C@@H](C(=O)N2CCC[C@H]2C(=O)N2CCC[C@H]2C(=O)N[C@@H](CO)C(=O)N[C@@H](CCC(=O)O)C(=O)N[C@@H](CO)C(N)=O)NC(=O)[C@H](CCCNC(=N)N)NC(=O)CNC(=O)[C@H](Cc2ccc(O)cc2)NC(=O)[C@H](C(C)C)NC(=O)[C@H](CCC(=O)O)NC1=O [Peptide E4A] (Ac-SLEAEWAQIECEVYGRCPPSES-NH2; disulfide 11-17) | 29.0 | 20.0 | 27.5 |  | 241 | 205 | 206 | 217 | 25.5 | lower than 5 fold
CC[C@H](C)[C@H](NC(=O)[C@H](CCC(N)=O)NC(=O)[C@H](C)NC(=O)[C@H](Cc1c[nH]c2ccccc12)NC(=O)[C@H](CCC(=O)O)NC(=O)[C@H](CCCNC(=N)N)NC(=O)[C@H](CCC(=O)O)NC(=O)[C@H](CC(C)C)NC(=O)[C@H](CO)NC(C)=O)C(=O)N[C@@H](CCC(=O)O)C(=O)N[C@H]1CSSC[C@@H](C(=O)N2CCC[C@H]2C(=O)N2CCC[C@H]2C(=O)N[C@@H](CO)C(=O)N[C@@H](CCC(=O)O)C(=O)N[C@@H](CO)C(N)=O)NC(=O)[C@H](CCCNC(=N)N)NC(=O)CNC(=O)[C@H](Cc2ccc(O)cc2)NC(=O)[C@H](C(C)C)NC(=O)[C@H](CCC(=O)O)NC1=O [Peptide E4R] (Ac-SLEREWAQIECEVYGRCPPSES-NH2; disulfide 11-17) | 42.4 | 35.7 | 35.9 |  | 367 | 259 | 348 | 325 | 38 | 
CC[C@H](C)[C@H](NC(=O)[C@H](CCC(N)=O)NC(=O)[C@H](C)NC(=O)[C@H](Cc1c[nH]c2ccccc12)NC(=O)[C@H](C)NC(=O)[C@H](CCC(=O)O)NC(=O)[C@H](CCC(=O)O)NC(=O)[C@H](CC(C)C)NC(=O)[C@H](CO)NC(C)=O)C(=O)N[C@@H](CCC(=O)O)C(=O)N[C@H]1CSSC[C@@H](C(=O)N2CCC[C@H]2C(=O)N2CCC[C@H]2C(=O)N[C@@H](CO)C(=O)N[C@@H](CCC(=O)O)C(=O)N[C@@H](CO)C(N)=O)NC(=O)[C@H](CCCNC(=N)N)NC(=O)CNC(=O)[C@H](Cc2ccc(O)cc2)NC(=O)[C@H](C(C)C)NC(=O)[C@H](CCC(=O)O)NC1=O [Peptide E5A] (Ac-SLEEAWAQIECEVYGRCPPSES-NH2; disulfide 11-17) | 107 | 98 | 89.4 |  | 316 | 264 | 378 | 319 | 98 | 
CC[C@H](C)[C@H](NC(=O)[C@H](CCC(N)=O)NC(=O)[C@H](C)NC(=O)[C@H](Cc1c[nH]c2ccccc12)NC(=O)[C@H](CCCNC(=N)N)NC(=O)[C@H](CCC(=O)O)NC(=O)[C@H](CCC(=O)O)NC(=O)[C@H](CC(C)C)NC(=O)[C@H](CO)NC(C)=O)C(=O)N[C@@H](CCC(=O)O)C(=O)N[C@H]1CSSC[C@@H](C(=O)N2CCC[C@H]2C(=O)N2CCC[C@H]2C(=O)N[C@@H](CO)C(=O)N[C@@H](CCC(=O)O)C(=O)N[C@@H](CO)C(N)=O)NC(=O)[C@H](CCCNC(=N)N)NC(=O)CNC(=O)[C@H](Cc2ccc(O)cc2)NC(=O)[C@H](C(C)C)NC(=O)[C@H](CCC(=O)O)NC1=O [Peptide E5R] (Ac-SLEERWAQIECEVYGRCPPSES-NH2; disulfide 11-17) | 620 | 541 | 500 |  | 1351 | 1340 | 1323 | 1340 | 554 | 
